Results: ChEMBL document CHEMBL3091385, “Radionuclide labeling and evaluation of candidate radioligands for PET imaging of histone deacetylase in the brain” (Bioorg Med Chem Lett, 2013)

Key:
[1] = Lipophilicity, log D of the compound at pH 7.4; assay type: physicochemical; conditions: buffer
[2] = Protein binding in plasma (unknown origin); assay type: ADME, cell-free; conditions: unidentified, read-out: PPB (converted)
[3] = Drug uptake in iv dosed baboon putamen after 90 mins by PET analysis; assay type: ADME, organism-based; conditions: papio anubis, in vivo
[4] = Drug uptake in iv dosed baboon heart after 90 mins by PET analysis; assay type: ADME, organism-based; conditions: papio anubis, in vivo
[5] = Drug uptake in iv dosed baboon heart after 90 mins by PET analysis in presence of SAHA; assay type: ADME, organism-based; conditions: papio anubis, in vivo
[6] = Drug uptake in iv dosed baboon liver after 90 mins by PET analysis in presence of SAHA; assay type: ADME, organism-based; conditions: papio anubis, in vivo
[7] = Drug uptake in iv dosed baboon kidney after 90 mins by PET analysis in presence of SAHA; assay type: ADME, organism-based; conditions: papio anubis, in vivo
Brain [8] = assay: Drug uptake in iv dosed baboon brain after 90 mins by PET analysis; assay type: ADME, organism-based; conditions: papio anubis, in vivo
[9] = Drug uptake in iv dosed baboon caudate after 90 mins by PET analysis; assay type: ADME, organism-based; conditions: papio anubis, in vivo
[10] = Drug uptake in iv dosed baboon liver after 90 mins by PET analysis; assay type: ADME, organism-based; conditions: papio anubis, in vivo
[11] = Drug uptake in iv dosed baboon kidney after 90 mins by PET analysis; assay type: ADME, organism-based; conditions: papio anubis, in vivo
[12] = Drug uptake in iv dosed baboon cerebellum after 90 mins by PET analysis; assay type: ADME, organism-based; conditions: papio anubis, in vivo
Brain [13] = assay: Drug uptake in iv dosed baboon whole brain after 90 mins by PET analysis; assay type: ADME, organism-based; conditions: papio anubis, in vivo

| SMILES | logD [1] | fraction unbound [2] | Drug uptake [3] | Drug uptake [4] | Drug uptake [5] | Drug uptake [6] | Drug uptake [7] | logD ([1]; read-out: logD) | Drug uptake (Brain [8]) | Drug uptake [9] | Drug uptake [10] | Drug uptake [11] | Drug uptake [12] | Drug uptake (Brain [13]) |
| --- | --- | --- | --- | --- | --- | --- | --- | --- | --- | --- | --- | --- | --- | --- |
| O=C(C[18F])NCCCCCC(=O)Nc1ccccc1 | 1.39 |  |  |  |  |  |  |  |  |  |  |  |  |  |
| [11CH3]Oc1ccc(C(=O)CCCCCCC(=O)NO)cc1 |  | 0.085 | Active | Active | Active | Active | Active | 0.5 | Active | Active | Active | Active | Active | Active |
| Nc1ccccc1NC(=O)c1ccc(CN[11C](=O)OCc2cccnc2)cc1 |  |  |  |  |  |  |  | 1.79 |  |  |  |  |  |  |
